Laboratory results taken from US20140243286A1, “BROMODOMAIN LIGANDS CAPABLE OF DIMERIZING IN AN AQUEOUS SOLUTION, AND METHODS OF USING SAME” (Coferon, Inc., priority 2011, published 2014).
Like-named read-outs stand apart in the source and are kept apart here.

Legend:
[1] = target: BRD2 (Homo sapiens, UniProt P25440); assay: Fluorescence anisotropy (FA) binding assay, BRD2
Experimental: (§1) Fluorescence Anisotropy (FA) Binding Assays.
(§2) FA assays were performed as described in Chung et al., J. Med Chem., 2011 54(11): 3827-38 except that protein concentrations were 125 nM and plates were read on a Spectramax M5 plate reader.

[2] = target: BRD3 (Homo sapiens, UniProt Q15059); assay: Fluorescence anisotropy (FA) binding assay, BRD3
Experimental: as §1, §2

[3] = target: BRD4 (Homo sapiens, UniProt O60885); assay: Fluorescence anisotropy (FA) binding assay, BRD4
Experimental: as §1, §2

[4] = BRD2, protein 125 nM, read-out: IC50 range (FA assay) BRD2, BRD-E monomers
[5] = BRD3, protein 125 nM, read-out: IC50 range (FA assay) BRD3, BRD-E monomers
[6] = BRD4, protein 125 nM, read-out: IC50 range (FA assay) BRD4, BRD-E monomers
[7] = BRD2, protein 125 nM, read-out: IC50 range (FA assay) BRD2, BRD-N monomers
[8] = BRD3, protein 125 nM, read-out: IC50 range (FA assay) BRD3, BRD-N monomers
[9] = BRD4, protein 125 nM, read-out: IC50 range (FA assay) BRD4, BRD-N monomers

Sequence of BRD2 (P25440 whole entry): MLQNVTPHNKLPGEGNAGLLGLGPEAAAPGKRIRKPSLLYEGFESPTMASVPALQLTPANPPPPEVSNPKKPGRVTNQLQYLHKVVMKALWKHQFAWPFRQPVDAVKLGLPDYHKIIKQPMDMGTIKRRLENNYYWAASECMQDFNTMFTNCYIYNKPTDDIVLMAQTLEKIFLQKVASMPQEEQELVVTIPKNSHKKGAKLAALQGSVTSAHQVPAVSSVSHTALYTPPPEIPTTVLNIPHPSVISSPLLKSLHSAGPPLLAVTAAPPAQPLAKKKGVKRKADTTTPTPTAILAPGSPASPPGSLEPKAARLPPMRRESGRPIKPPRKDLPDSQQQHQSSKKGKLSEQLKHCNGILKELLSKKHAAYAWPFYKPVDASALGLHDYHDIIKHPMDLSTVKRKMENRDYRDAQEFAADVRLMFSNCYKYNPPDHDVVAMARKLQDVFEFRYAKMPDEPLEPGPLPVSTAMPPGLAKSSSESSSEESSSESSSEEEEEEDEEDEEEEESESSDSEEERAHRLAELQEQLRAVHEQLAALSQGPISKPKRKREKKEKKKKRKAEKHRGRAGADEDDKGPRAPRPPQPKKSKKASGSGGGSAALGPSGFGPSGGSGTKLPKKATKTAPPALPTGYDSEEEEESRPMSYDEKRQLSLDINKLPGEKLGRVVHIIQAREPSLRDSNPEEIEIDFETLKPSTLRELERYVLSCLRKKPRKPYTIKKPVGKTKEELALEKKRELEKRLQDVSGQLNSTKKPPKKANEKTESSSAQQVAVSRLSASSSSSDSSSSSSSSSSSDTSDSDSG
Sequence of BRD3 (Q15059 whole entry): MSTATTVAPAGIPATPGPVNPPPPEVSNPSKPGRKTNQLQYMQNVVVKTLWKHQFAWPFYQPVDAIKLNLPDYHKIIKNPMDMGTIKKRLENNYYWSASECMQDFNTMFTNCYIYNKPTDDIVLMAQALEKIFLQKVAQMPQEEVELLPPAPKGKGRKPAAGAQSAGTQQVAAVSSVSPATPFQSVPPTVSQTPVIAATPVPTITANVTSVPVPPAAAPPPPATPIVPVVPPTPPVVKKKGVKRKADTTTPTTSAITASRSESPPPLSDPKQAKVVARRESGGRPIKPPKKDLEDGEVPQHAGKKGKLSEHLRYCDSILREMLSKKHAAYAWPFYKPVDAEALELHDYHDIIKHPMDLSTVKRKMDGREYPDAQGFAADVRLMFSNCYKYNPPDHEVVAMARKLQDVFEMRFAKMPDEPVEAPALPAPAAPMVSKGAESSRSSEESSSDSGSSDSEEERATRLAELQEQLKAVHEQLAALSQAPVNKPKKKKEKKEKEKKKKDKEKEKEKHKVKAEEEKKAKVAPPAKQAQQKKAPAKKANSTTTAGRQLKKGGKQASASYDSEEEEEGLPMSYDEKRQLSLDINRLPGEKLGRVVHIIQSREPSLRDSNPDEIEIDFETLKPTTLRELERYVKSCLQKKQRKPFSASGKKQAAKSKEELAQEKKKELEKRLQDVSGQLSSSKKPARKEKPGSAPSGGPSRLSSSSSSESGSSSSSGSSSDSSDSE

Structure (SMILES)	IC50 [1, 4] [µM]	IC50 [2, 5] [µM]	IC50 [3, 6] [µM]	also measured
CCNC(=O)C[C@@H]1N=C(c2ccc(Cl)cc2)c2cc(OCCNC(=O)c3cccc(B(O)O)c3)ccc2-n2c(C)nnc21 [BRD-E-21, (S)-(3-((2-((6-(4-chlorophenyl)-4-(2-(ethylamino)-2-oxoethyl)-1-methyl-4H-benzo[f][1,2,4]triazolo[4,3-a]diazepin-8-yl)oxy)ethyl)carbamoyl)phenyl)boronic acid]	0.05 to 1	0.05 to 1	0.05 to 1	
CCNC(=O)C[C@@H]1N=C(c2ccc(Cl)cc2)c2cc(OCCNC(=O)c3ccc(B(O)O)cc3)ccc2-n2c(C)nnc21 [BRD-E-22, (S)-(4-((2-((6-(4-chlorophenyl)-4-(2-(ethylamino)-2-oxoethyl)-1-methyl-4H-benzo[f][1,2,4]triazolo[4,3-a]diazepin-8-yl)oxy)ethyl)carbamoyl)phenyl)boronic acid]	0.05 to 1	0.05 to 1	0.05 to 1	
CCNC(=O)C[C@@H]1N=C(c2ccc(Cl)cc2)c2cc(OCCCNC(=O)c3cccc(B(O)O)c3)ccc2-n2c(C)nnc21 [BRD-E-23, (S)-(3-((3-((6-(4-chlorophenyl)-4-(2-(ethylamino)-2-oxoethyl)-1-methyl-4H-benzo[f][1,2,4]triazolo[4,3-a][1,4]diazepin-8-yl)oxy)propyl)carbamoyl)phenyl)boronic acid]	1 to 30	1 to 30	1 to 30	
CCNC(=O)C[C@@H]1N=C(c2ccc(Cl)cc2)c2cc(OCCCNC(=O)c3ccc(B(O)O)cc3)ccc2-n2c(C)nnc21 [BRD-E-24, (S)-(4-((3-((6-(4-chlorophenyl)-4-(2-(ethylamino)-2-oxoethyl)-1-methyl-4H-benzo[f][1,2,4]triazolo[4,3-a][1,4]diazepin-8-yl)oxy)propyl)carbamoyl)phenyl)-boronic acid]	1 to 30	0.05 to 1	0.05 to 1	
CCNC(=O)C[C@@H]1N=C(c2ccc(Cl)cc2)c2cc(OCCCCNC(=O)c3cccc(B(O)O)c3)ccc2-n2c(C)nnc21 [BRD-E-25, (S)-(3-((4-((6-(4-chlorophenyl)-4-(2-(ethylamino)-2-oxoethyl)-1-methyl-4H-benzo[f][1,2,4]triazolo[4,3-a][1,4]diazepin-8-yl)oxy)butyl)carbamoyl)phenyl)boronic acid]	1 to 30	1 to 30	1 to 30	
CCNC(=O)C[C@@H]1N=C(c2ccc(Cl)cc2)c2cc(OCCCCNC(=O)c3ccc(B(O)O)cc3)ccc2-n2c(C)nnc21 [BRD-E-26, (S)-(4-((4-((6-(4-chlorophenyl)-4-(2-(ethylamino)-2-oxoethyl)-1-methyl-4H-benzo[f][1,2,4]triazolo[4,3-a][1,4]diazepin-8-yl)oxy)butyl)carbamoyl)phenyl)boronic acid]	0.05 to 1	0.05 to 1	0.05 to 1	
COc1ccc2c(c1)C(c1ccc(Cl)cc1)=N[C@@H](CC(=O)NCCNC(=O)/C=C/c1ccc(B(O)O)cc1)c1nnc(C)n1-2 [BRD-E-29, (4-((E)-3-((2-(2-((4S)-6-(4-chlorophenyl)-8-methoxy-1-methyl-4H-benzo[f][1,2,4]triazolo[4,3-a][1,4]diazepin-4-yl)acetamido)ethyl)amino)-3-oxoprop-1-en-1-yl)phenyl)boronic acid]	0.05 to 1	0.05 to 1	0.05 to 1	
COc1ccc2c(c1)C(c1ccc(Cl)cc1)=N[C@@H](CC(=O)NCCNC(=O)c1cccc(-c3cccc(B(O)O)c3)c1)c1nnc(C)n1-2 [BRD-E-31, (3′-((2-(2-((4S)-6-(4-chlorophenyl)-8-methoxy-1-methyl-4H-benzo[f][1,2,4]triazolo[4,3-a][1,4]diazepin-4-yl)acetamido)ethyl)carbamoyl)-[1,1′-biphenyl]-3-yl)boronic acid]	0.05 to 1	0.05 to 1	0.05 to 1	
COc1ccc2c(c1)C(c1ccc(Cl)cc1)=N[C@@H](CC(=O)NCCNC(=O)Cc1cccc(B(O)O)c1)c1nnc(C)n1-2 [BRD-E-38, (3-(2-((2-(2-((4S)-6-(4-chlorophenyl)-8-methoxy-1-methyl-4H-benzo[f][1,2,4]triazolo[4,3-a][1,4]diazepin-4-yl)acetamido)ethyl)amino)-2-oxoethyl)phenyl)boronic acid]	0.05 to 1	0.05 to 1	0.05 to 1	
COc1ccc2c(c1)C(c1ccc(Cl)cc1)=N[C@@H](CC(=O)NCCNC(=O)c1ccc(O)c(O)c1)c1nnc(C)n1-2 [BRD-N-01, N-(2-(2-((4S)-6-(4-chlorophenyl)-8-methoxy-1-methyl-4H-benzo[f][1,2,4]triazolo[4,3-a][1,4]diazepin-4-yl)acetamido)ethyl)-3,4-dihydroxybenzamide]				IC50 [1, 7]: 0.05 to 1 µM; IC50 [2, 8]: 0.05 to 1 µM; IC50 [3, 9]: 0.05 to 1 µM
COc1ccc2c(c1)C(c1ccc(Cl)cc1)=N[C@@H](CC(=O)NCCNC(=O)c1cccc(O)c1O)c1nnc(C)n1-2 [BRD-N-02, N-(2-(2-((4S)-6-(4-chlorophenyl)-8-methoxy-1-methyl-4H-benzo[f][1,2,4]triazolo[4,3-a][1,4]diazepin-4-yl)acetamido)ethyl)-2,3-dihydroxybenzamide]				IC50 [1, 7]: 0.05 to 1 µM; IC50 [2, 8]: 0.05 to 1 µM; IC50 [3, 9]: 0.05 to 1 µM
COc1ccc2c(c1)C(c1ccc(Cl)cc1)=N[C@@H](CC(=O)NCCCNC(=O)c1ccc(O)c(O)c1)c1nnc(C)n1-2 [BRD-N-03, N-(3-(2-((4S)-6-(4-chlorophenyl)-8-methoxy-1-methyl-4H-benzo[f][1,2,4]triazolo[4,3-a][1,4]diazepin-4-yl)acetamido)propyl)-3,4-dihydroxybenzamide]				IC50 [1, 7]: 0.05 to 1 µM; IC50 [2, 8]: 0.05 to 1 µM; IC50 [3, 9]: 0.05 to 1 µM
COc1ccc2c(c1)C(c1ccc(Cl)cc1)=N[C@@H](CC(=O)NCCCNC(=O)c1cccc(O)c1O)c1nnc(C)n1-2 [BRD-N-04, N-(3-(2-((4S)-6-(4-chlorophenyl)-8-methoxy-1-methyl-4H-benzo[f][1,2,4]triazolo[4,3-a][1,4]diazepin-4-yl)acetamido)propyl)-2,3-dihydroxybenzamide]				IC50 [1]: 0.05 to 1 µM; IC50 [2]: 0.05 to 1 µM; IC50 [3]: 0.05 to 1 µM
COc1ccc2c(c1)C(c1ccc(Cl)cc1)=N[C@@H](CC(=O)NCCCCNC(=O)c1ccc(O)c(O)c1)c1nnc(C)n1-2 [BRD-N-05, N-(4-(2-((4S)-6-(4-chlorophenyl)-8-methoxy-1-methyl-4H-benzo[f][1,2,4]triazolo[4,3-a][1,4]diazepin-4-yl)acetamido)butyl)-3,4-dihydroxybenzamide]				IC50 [1]: 0.05 to 1 µM; IC50 [2]: 0.05 to 1 µM; IC50 [3]: 0.05 to 1 µM
COc1ccc2c(c1)C(c1ccc(Cl)cc1)=N[C@@H](CC(=O)NCCCCNC(=O)c1cccc(O)c1O)c1nnc(C)n1-2 [BRD-N-06, N-(4-(2-((4S)-6-(4-chlorophenyl)-8-methoxy-1-methyl-4H-benzo[f][1,2,4]triazolo[4,3-a][1,4]diazepin-4-yl)acetamido)butyl)-2,3-dihydroxybenzamide]				IC50 [1]: 0.05 to 1 µM; IC50 [2]: 1 to 30 µM; IC50 [3]: 0.05 to 1 µM
COc1ccc2c(c1)C(c1ccc(Cl)cc1)=N[C@@H](CC(=O)NCCCCCNC(=O)c1ccc(O)c(O)c1)c1nnc(C)n1-2 [BRD-N-07, N-(5-(2-((4S)-6-(4-chlorophenyl)-8-methoxy-1-methyl-4H-benzo[f][1,2,4]triazolo[4,3-a][1,4]diazepin-4-yl)acetamido)pentyl)-3,4-dihydroxybenzamide]				IC50 [1, 7]: 0.05 to 1 µM; IC50 [2, 8]: 0.05 to 1 µM; IC50 [3, 9]: 0.05 to 1 µM
